The record followed here is PubChem BioAssay (NCI).

Values joined by “and” are separate entries in the source; they are usually repeats but may differ in a detail not shown here. Equal entries are not always repeated.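 Step 1: Grow cells in 96-well plates. Step 2: Expose to compound for 48 hours at 5 concentrations. Step 3: Interpolate endpoints linearly; if unreached, use highest concentration. Abbreviation: GI50, concentration required for 50% inhibition of growth. TGI is the concentration that stops growth completely.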

Some test systems named below: A549 NSCLC; KM12 colon; SNB-19 CNS; OVCAR-4 ovarian; UO-31 renal; UACC-257 melanoma; HCT-116 colon; SK-MEL-5 melanoma; HOP-92 NSCLC; OVCAR-5 ovarian.
Assay in all cases: NCI anticancer screen, dose series, 48 h

With `Cn1cc(C(=O)C[n+]2ccccc2)c2ccccc21`, the TGI in the experiment with A549 NSCLC, with KM12 colon, in the experiment on SNB-19 CNS, in the experiment on OVCAR-4 ovarian, in the experiment with UO-31 renal and in the experiment with UACC-257 melanoma was over 100 µM in each case. Also, the TGI in the experiment on HCT-116 colon and in the experiment on SK-MEL-5 melanoma was over 100 µM in each case.

For the compound `O=c1c2cc(Cl)ccc2sc2cccc(Cl)c12`, the TGI in the experiment on A549 NSCLC, in the experiment with KM12 colon, in the experiment with SNB-19 CNS, in the experiment on OVCAR-4 ovarian, with HOP-92 NSCLC and with UO-31 renal was over 100 µM in each case. The TGI with UACC-257 melanoma, with HCT-116 colon and with OVCAR-5 ovarian was over 100 µM each time.

On to `COc1cc(C2CC(c3ccc(Nc4ccnc5cc(Cl)ccc45)cc3)=NN2c2ccc(Cl)cc2)cc(OC)c1OC` (stereo not given), for which the GI50 with A549 NSCLC is 4.15 µM; in the experiment with KM12 colon, 1.67 µM; with SNB-19 CNS, 4.91 µM; with HOP-92 NSCLC, 1.64 µM; in the experiment with UO-31 renal, 1.58 µM; in the experiment with UACC-257 melanoma, 2.72 µM. Besides, the GI50 in the experiment with HCT-116 colon is 3.08 µM; in the experiment on OVCAR-5 ovarian, 6.08 µM; with SK-MEL-5 melanoma it was 2.68 µM. In addition, the TGI with A549 NSCLC is over 100 µM; in the experiment on KM12 colon, over 100 µM; in the experiment on SNB-19 CNS, over 100 µM; in the experiment on HOP-92 NSCLC it was over 100 µM; with UO-31 renal, over 100 µM; in the experiment on UACC-257 melanoma, 36.4 µM. The figures for the TGI in the experiment on HCT-116 colon, in the experiment with OVCAR-5 ovarian and in the experiment with SK-MEL-5 melanoma were over 100 µM, over 100 µM and 15.6 µM, respectively.

Consider `CSc1nc(SC)c2c(CO)c(Br)n(Cc3ccccc3)c2n1`, for which the TGI is over 100 µM in the experiment with A549 NSCLC; over 100 µM in the experiment with KM12 colon; 84.3 µM in the experiment on SNB-19 CNS; 41.7 µM in the experiment with OVCAR-4 ovarian; 41.8 µM in the experiment on HOP-92 NSCLC; 44.4 µM with UO-31 renal. The TGI in the experiment with HCT-116 colon, with OVCAR-5 ovarian and in the experiment with SK-MEL-5 melanoma was over 100 µM each time.

Regarding `NC(N)=NS(=O)(=O)c1ccc(NCCc2c3ccccc3nc3ccccc23)cc1`, the TGI with A549 NSCLC was over 100 µM; in the experiment on KM12 colon, over 100 µM; in the experiment with SNB-19 CNS it was over 100 µM; with OVCAR-4 ovarian it was 53.8 µM; in the experiment on HOP-92 NSCLC, over 100 µM; in the experiment with UO-31 renal it was over 100 µM. Further, the TGI in the experiment with UACC-257 melanoma, in the experiment with HCT-116 colon and in the experiment on OVCAR-5 ovarian was over 100 µM each time.

In the case of `N#Cc1cccc(/C=N/N=C(\N)NO)c1`, the TGI in the experiment on A549 NSCLC, in the experiment on KM12 colon, in the experiment on SNB-19 CNS, in the experiment with OVCAR-4 ovarian, in the experiment with HOP-92 NSCLC and in the experiment on UO-31 renal was over 100 µM each time. The TGI in the experiment with UACC-257 melanoma, in the experiment on HCT-116 colon and with OVCAR-5 ovarian was over 100 µM each time.

Take `COC(=O)[C@@H](C)C[C@H](Cc1ccccc1)NC(=O)c1csc([C@@H](C[C@H](C(C)C)N(C)C(=O)[C@@H](NC(=O)[C@H]2CCCCN2C)C2CC2)OC(C)=O)n1`: the GI50 was 0.0027 µM and 0.00165 µM in the experiment with A549 NSCLC; 0.000317 µM and 0.00165 µM in the experiment on KM12 colon; 0.000552 µM and 0.00165 µM with SNB-19 CNS; 0.00909 µM and 0.006 µM in the experiment on OVCAR-4 ovarian; 0.00516 µM and 0.00284 µM in the experiment with UO-31 renal; 0.00043 µM and 0.00165 µM with HCT-116 colon. In the experiment on OVCAR-5 ovarian, the GI50 is 0.00384 µM and 0.00604 µM. In addition, the TGI with A549 NSCLC, with KM12 colon, in the experiment with SNB-19 CNS, with OVCAR-4 ovarian, with HOP-92 NSCLC and with UO-31 renal was over 16.5 µM throughout. The TGI in the experiment with HCT-116 colon is 0.011 µM; in the experiment with OVCAR-5 ovarian, over 16.5 µM; in the experiment on SK-MEL-5 melanoma, 0.0138 µM and 0.00203 µM.

In the case of `Cc1cc(N2CCOCC2)cc2[nH]c(-c3c(NC[C@@H](O)c4cccc(Cl)c4)cc[nH]c3=O)nc12`, the GI50 in the experiment on A549 NSCLC was 0.903 µM; in the experiment with KM12 colon, 0.0161 µM; in the experiment on SNB-19 CNS it was 3.29 µM; in the experiment with OVCAR-4 ovarian it was 4.21 µM; in the experiment on UO-31 renal, 0.275 µM; in the experiment with UACC-257 melanoma, 0.385 µM. In addition, the results for the GI50 in the experiment with HCT-116 colon, in the experiment on OVCAR-5 ovarian and with SK-MEL-5 melanoma were 1.64 µM, 0.673 µM and 2.13 µM, respectively. The TGI stood at 4.31 µM in the experiment with A549 NSCLC; 4.46 µM in the experiment on KM12 colon; 22.8 µM with SNB-19 CNS; 40.4 µM with OVCAR-4 ovarian; 2.98 µM in the experiment on UO-31 renal; 7.37 µM in the experiment with UACC-257 melanoma. In addition, the TGI in the experiment on HCT-116 colon worked out at 6.67 µM; in the experiment with OVCAR-5 ovarian, 9.66 µM; with SK-MEL-5 melanoma, 11.3 µM.

As to `O=C1c2ccccc2-c2c1c1ccccc1c(=O)n2CCCn1ccnc1`, the GI50 in the experiment with A549 NSCLC was 1.87 µM; in the experiment on KM12 colon, 1.94 µM; with SNB-19 CNS, 2.11 µM; with OVCAR-4 ovarian it was 2.29 µM; in the experiment on HOP-92 NSCLC, 1.83 µM; with UO-31 renal, 0.359 µM. Moreover, the GI50 was 1.4 µM in the experiment with HCT-116 colon and 3.05 µM in the experiment on OVCAR-5 ovarian. In addition, the TGI in the experiment with A549 NSCLC was 4.74 µM; in the experiment on KM12 colon it was 5.95 µM; in the experiment with SNB-19 CNS, over 100 µM; in the experiment on OVCAR-4 ovarian, over 100 µM; in the experiment on HOP-92 NSCLC it was 6.45 µM; in the experiment with UO-31 renal, over 100 µM. The values for the TGI in the experiment on HCT-116 colon and with OVCAR-5 ovarian were 13.8 µM and 53.6 µM, respectively.

As for `C[N+]1=C(/C=C\C=C\c2ccccc2)C(C)(C)c2ccccc21`, the GI50 was 4.43 µM in the experiment on A549 NSCLC; 3.15 µM in the experiment on KM12 colon; 2.79 µM in the experiment on SNB-19 CNS; 2.69 µM with OVCAR-4 ovarian; 2.35 µM in the experiment with HOP-92 NSCLC; 3.49 µM in the experiment with UO-31 renal. Also, the GI50 with UACC-257 melanoma is 1.69 µM; in the experiment on HCT-116 colon, 3.3 µM; in the experiment with OVCAR-5 ovarian, 3.88 µM. In addition, the TGI came out at 19.6 µM with A549 NSCLC; 10.8 µM in the experiment on KM12 colon; 10.8 µM with SNB-19 CNS; 13.8 µM with OVCAR-4 ovarian; 6.77 µM with HOP-92 NSCLC; 15 µM in the experiment on UO-31 renal. The TGI in the experiment on UACC-257 melanoma amounted to 4.52 µM; in the experiment on HCT-116 colon, 13.2 µM; in the experiment with OVCAR-5 ovarian, 13.3 µM.
